From PMC5013675, “Nucleotide binding by the widespread high-affinity cyclic di-GMP receptor MshEN domain” (Nature Communications, 2016)

Columns and labels:
Format in all cases: binding
VcMshEN L10A/L58A = target: VcMshEN L10A/L58A
VcMshEN G11L = target: VcMshEN G11L
VcMshEN L10A-L54A-L58A = test system: VcMshEN L10A-L54A-L58A
VcMshEN_N G40I = test system: VcMshEN_N G40I
VcMshEN_N G11L = test system: VcMshEN_N G11L
VcMshEN_N L10A = test system: VcMshEN_N L10A
VcMshEN_N L25A = test system: VcMshEN_N L25A
VcMshEN_N L25A/L29A = test system: VcMshEN_N L25A/L29A
VcMshEN_N L54A/L58A = test system: VcMshEN_N L54A/L58A
VcMshEN_N L10A/L54A/L58A = test system: VcMshEN_N L10A/L54A/L58A

## Nc1nc2c(ncn2[C@@H]2O[C@@H]3CO[P@](=O)(O)O[C@H]4[C@@H](O)[C@H](n5cnc6c(=O)[nH]c(N)nc65)O[C@@H]4CO[P@](=O)(O)O[C@H]3[C@H]2O)c(=O)[nH]1 [c-di-GMP, Cyclic dimeric GMP]
VcMshEN L10A/L58A
  Dissociation constant (KD): cannot bind c-di-GMP
  Fold reduction of binding affinity: > 100
VcMshEN G11L
  Dissociation constant (KD): abrogated c-di-GMP binding
VcMshEN L10A-L54A-L58A
  c-di-GMP binding in vitro: abrogates the ability of VcMshEN to bind c-di-GMP
VcMshEN_N G40I
  Melting temperature Tm, + c-di-GMP: 56 ºC
VcMshEN_N G11L
  Melting temperature Tm, + c-di-GMP: 52 ºC
VcMshEN_N L10A
  Melting temperature Tm, + c-di-GMP: 56 ºC
VcMshEN_N L25A
  Melting temperature Tm, + c-di-GMP: 60 ºC
VcMshEN_N L25A/L29A
  Melting temperature Tm, + c-di-GMP: 59 ºC
  Tm Difference: 9 ºC
VcMshEN_N L54A/L58A
  Melting temperature Tm, + c-di-GMP: 54 ºC
VcMshEN_N L10A/L54A/L58A
  Melting temperature Tm, + c-di-GMP: 53 ºC
